Source: EP0158075A1, “Immuno stimulating composition” (BAYER AG, priority 1984, dated 1985)

Key:
Salmonella typhimurium [1] = experiment: In vitro direct effect on growth of Salmonella typhimurium; format: cell-based
Salmonella typhimurium [2] = experiment: Survival of mice after intraperitoneal infection with Salmonella typhimurium (Beispiel B); format: in vivo, Mäuse; conditions: 10 mg/kg per os once daily on 4 consecutive days, starting 1 day after i.p. infection with 7 x 10^5 colony-forming units
Description: Substanzen, die die körpereigene Abwehr (Immunsystem) während einer Infektion stimulieren, sind sowohl für die Human- wie für die Veterinärmedizin von großem Interesse, da viele Infektionen trotz guter chemotherapeutischer Möglichkeiten ohne Unterstützung durch körpereigene Abwehrmechanismen persistieren. Dies kann zum erneuten Auftreten von Symptomen (Rezidiv) nach dem überstehen der Ersterkrankung und damit zu chronisch rezidivierenden Krankheiten führen. Unter den durch Bakterien bedingten Erkrankungen sind es besonders Infektionen mit sogenannten fakultativ intrazellulären Bakterien, die Probleme darstellen. Darunter versteht man Bakterien, die sich nach Aufnahme in die Makrophagen (Phagozytose) weiter vermehren. Es bedarf erst einer weiteren Stimulierung der Makrophagen über das Immunsystem, um diese intrazellulären Bakterien abzutöten. Ein Experimentalmodell für eine solche Erkrankung stellt die Infektion der Maus mit Salmonella typhimurium dar. Nach Inokulation der Mäuse mit diesem humanpathogenen Bakterium kommt es in Abhängigkeit von der Infektionsdosis zu einem subakut bis chronischen Krankheitsverlauf, bei dem die Tiere erst nach 4 bis 7 Tagen abzusterben beginnen. Während dieses Zeitraumes besteht die Möglichkeit, das Immunsystem durch Substanzen zu beeinflussen. Bei den meisten anderen tierexperimentellen Infektionen, kommt es zu einem sehr schnellen Absterben der Tiere innerhalb von 1 bis 2 Tagen. Damit besteht keine Möglichkeit mehr, die Abwehr während der Infektion zu stimulieren. 1-[3-Methyl-4-(4'-trifluormethylthio-phenoxy)-phenyl]-3-methyl-1,3,5-triazin-trion wurde Mäusen an 4 aufeinanderfolgenden Tagen einmal täglich per os in unterschiedlichen Dosen verabfolgt, beginnend 1 Tag nach intraperitonealer Infektion mit 7 x 10^5 Kolonien-bildenden Einheiten von Salmonella typhimurium. Diese Infektionsdosis führt bei unbehandelten Tieren innerhalb von 4 bis 6 Tagen zu einem Absterben von 70 bis 90 % der Tiere. […]

Cc1cc(-n2c(=O)[nH]c(=O)n(C)c2=O)ccc1Oc1ccc(SC(F)(F)F)cc1 [1-[3-Methyl-4-(4'-trifluormethylthio-phenoxy)-phenyl]-3-methyl-1,3,5-triazin-2,4,6-(1H, 3H, 5H)-trion]
direkter Effekt auf die Vermehrung von Salmonella typhimurium (Salmonella typhimurium [1]): keinen direkten Effekt
Überlebende Mäuse (%) an folgenden Tagen nach Infektion: 6. Tag (Salmonella typhimurium [2]; day 6 after infection): 90%
Überlebende Mäuse (%) an folgenden Tagen nach Infektion: 12. Tag (Salmonella typhimurium [2]; day 12 after infection): 60%
Überlebende Mäuse (%) an folgenden Tagen nach Infektion: 18. Tag (Salmonella typhimurium [2]; day 18 after infection): 60%
